According to publication PMC4351869 (Journal of neuro-oncology, 2011):

Key:
[1] = test system: recurrent glioblastoma; experiment: Phase II trial NABTC 03-02, progression free survival; format: in vivo, patients; conditions: 2000 mg i.v. twice weekly after resection
[2] = clinical; conditions: human, in vivo, iv
[3] = Tumor tissue concentrations of cilengitide at resection, HPLC-MS/MS; format: in vivo, patients; conditions: human, iv
[4] = Treatment-related toxicity in the phase II trial; format: in vivo, patients

CC(C)[C@H]1C(=O)N[C@@H](CCCNC(=N)N)C(=O)NCC(=O)N[C@@H](CC(=O)O)C(=O)N[C@H](Cc2ccccc2)C(=O)N1C [Cilengitide]
6-month PFS rate ([1]; 26 patients evaluable for efficacy): 12% | median PFS ([1]; Kaplan-Meier, 95% confidence interval 4–16 weeks): 8 weeks | level at 24 h ([2]; 500 mg): 333 ng/mL | level at 24 h ([2]; 2000 mg): 386 ng/mL | tissue level at time at 24 h ([3]; 500 mg): 919 ng/g | tissue level at time at 24 h ([3]; 2000 mg): 1410 ng/g | tolerability ([4]; 30 patients, 500 or 2000 mg before surgery, 2000 mg i.v. twice weekly after): very well tolerated | dose reductions for toxicity ([4]; in vivo): no dose reductions for toxicity | treatment related deaths ([4]; in vivo): no treatment related deaths | number of grade 3–4 toxicities ([4]; mainly lymphopenia, likely related to prior cytotoxic chemotherapy): 9
